Results on 14 compounds are retold here after ChEMBL document CHEMBL3784998, “Synthesis and biological evaluation ofd-gluconhydroximo-1,5-lactam and its oxime-substituted derivatives as pharmacological chaperones for the treatment of Gaucher disease” (Medchemcomm, 2016).

The structures appear in SMILES notation. Numbering of substitutions follows the chain as printed. Activity calls are given as the source filed them. The rule behind the calls is not given here. Some results are limits rather than exact numbers.

As a reminder, the IC50 is the concentration at which inhibition is half-maximal. Usually Ki stands for a measure of affinity in units of concentration, obtained from inhibition or displacement.

Series [1] in a line: Inhibition of almond beta glucosidase. On the set-up: species or system Prunus dulcis.
For series [2], the target named is Beta-galactosidase (Escherichia coli K-12, UniProt P00722). The series is described as follows: Inhibition of Escherichia coli beta-galactosidase.
Series [3] concerns the target Alpha-galactosidase (Coffea arabica, UniProt Q42656). As to the kind of experiment: Inhibition of green coffee bean alpha-galactosidase.
Series [4] deals with T1, Lysosomal acid glucosylceramidase (Homo sapiens, UniProt P04062).
T1 sequence (P04062 whole entry): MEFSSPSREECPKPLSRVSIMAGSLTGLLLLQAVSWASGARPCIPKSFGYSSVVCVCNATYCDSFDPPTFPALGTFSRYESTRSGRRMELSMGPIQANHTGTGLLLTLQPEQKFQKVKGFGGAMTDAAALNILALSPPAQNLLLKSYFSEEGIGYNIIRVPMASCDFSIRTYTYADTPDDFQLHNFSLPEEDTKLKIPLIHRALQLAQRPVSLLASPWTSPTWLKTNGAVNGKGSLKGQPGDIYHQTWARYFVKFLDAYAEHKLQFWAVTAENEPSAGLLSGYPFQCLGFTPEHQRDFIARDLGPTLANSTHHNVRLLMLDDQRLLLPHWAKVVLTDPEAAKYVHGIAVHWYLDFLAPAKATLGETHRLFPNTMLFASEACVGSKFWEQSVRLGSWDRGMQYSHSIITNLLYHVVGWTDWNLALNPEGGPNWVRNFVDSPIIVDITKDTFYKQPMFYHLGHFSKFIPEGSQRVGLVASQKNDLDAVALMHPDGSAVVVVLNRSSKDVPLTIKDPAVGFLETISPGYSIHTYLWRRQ
As to the kind of experiment: Inhibition of human recombinant imiglucerase using 4-MU-beta-D-Glu as substrate at pH 5.2 after 30 mins by fluorometric analysis.

Series [5] concerns the target T1, Lysosomal acid glucosylceramidase. The series is described as follows: Inhibition of human recombinant imiglucerase using 4-MU-beta-D-Glu as substrate at pH 7.0 after 30 mins by fluorometric analysis.
The target is the same in series [6]. The series is described as follows: Competitive inhibition of human recombinant imiglucerase using 4-MU-beta-D-Glu as substrate at pH 5.2 after 30 mins by fluorometry based Lineweaver-Burk plot analysis.
The test system of series [7] is T2, Lysosomal acid glucosylceramidase (Homo sapiens), P04062 [N409S].
T2 sequence (whole entry): T1 sequence (P04062 whole entry) with N409S
The series is described as follows: Pharmacological chaperone activity at beta-glucocerebrosidase N370S mutant in Gaucher disease patient-derived lymphoblasts with GCase N370S mutant assessed as increase in enzyme activity at 3.125 to 100 uM after 3 days by fluorimetric analysis relative to control.

Series [8] in a line: Cytotoxicity against wild type human CCC-ESF1 cells at 100 uM after 24 hrs by MTT assay. The note with it: ccc-esf1, 24 h. The series is classed as cell-based.
Series [9] relates to T2, Lysosomal acid glucosylceramidase (Homo sapiens), P04062 [N409S]. As to the kind of experiment: Pharmacological chaperone activity at beta-glucocerebrosidase N370S mutant in Gaucher disease patient-derived lymphoblasts with GCase N370S mutant assessed as increase in enzyme activity at 10 uM after 3 days by fluorimetric analysis relative to control.

Chain of Beta-galactosidase (P00722 whole entry): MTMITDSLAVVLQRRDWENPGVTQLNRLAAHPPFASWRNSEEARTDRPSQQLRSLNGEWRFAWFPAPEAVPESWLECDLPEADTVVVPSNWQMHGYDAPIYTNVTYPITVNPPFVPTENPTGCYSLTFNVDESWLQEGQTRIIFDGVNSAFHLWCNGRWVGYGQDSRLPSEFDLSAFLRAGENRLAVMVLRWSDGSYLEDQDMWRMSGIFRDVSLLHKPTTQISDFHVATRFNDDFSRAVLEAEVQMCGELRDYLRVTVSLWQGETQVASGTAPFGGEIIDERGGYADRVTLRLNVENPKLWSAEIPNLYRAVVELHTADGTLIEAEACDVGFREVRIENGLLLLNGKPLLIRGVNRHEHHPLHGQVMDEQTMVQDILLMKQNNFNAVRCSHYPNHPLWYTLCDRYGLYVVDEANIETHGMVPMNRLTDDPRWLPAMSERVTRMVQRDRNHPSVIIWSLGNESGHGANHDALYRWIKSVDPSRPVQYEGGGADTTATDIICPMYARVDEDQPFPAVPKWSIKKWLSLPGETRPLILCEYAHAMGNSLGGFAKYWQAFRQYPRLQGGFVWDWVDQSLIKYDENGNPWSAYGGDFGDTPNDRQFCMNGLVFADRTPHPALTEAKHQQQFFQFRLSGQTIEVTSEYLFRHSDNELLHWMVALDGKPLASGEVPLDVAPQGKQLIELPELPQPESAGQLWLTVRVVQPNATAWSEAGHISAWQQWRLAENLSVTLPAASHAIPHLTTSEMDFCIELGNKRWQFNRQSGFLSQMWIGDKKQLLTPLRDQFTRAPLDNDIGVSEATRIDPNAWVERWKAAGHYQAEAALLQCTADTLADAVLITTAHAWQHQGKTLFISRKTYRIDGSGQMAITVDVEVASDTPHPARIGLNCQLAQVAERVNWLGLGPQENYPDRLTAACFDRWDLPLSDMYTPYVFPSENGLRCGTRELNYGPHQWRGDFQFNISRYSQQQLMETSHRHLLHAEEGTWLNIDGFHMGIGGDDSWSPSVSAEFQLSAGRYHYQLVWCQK
Chain of Alpha-galactosidase (Q42656 whole entry): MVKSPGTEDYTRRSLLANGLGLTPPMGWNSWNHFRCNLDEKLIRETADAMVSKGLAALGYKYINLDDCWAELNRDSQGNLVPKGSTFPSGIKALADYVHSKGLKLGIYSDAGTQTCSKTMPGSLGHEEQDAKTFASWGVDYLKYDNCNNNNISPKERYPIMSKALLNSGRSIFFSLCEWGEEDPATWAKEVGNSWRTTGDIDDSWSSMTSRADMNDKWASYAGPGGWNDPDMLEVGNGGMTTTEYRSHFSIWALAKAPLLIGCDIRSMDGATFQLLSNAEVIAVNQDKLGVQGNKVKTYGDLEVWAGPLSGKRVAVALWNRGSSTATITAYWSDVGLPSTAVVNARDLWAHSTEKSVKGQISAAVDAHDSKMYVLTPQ

Take `O=C(Nc1c(Cl)cccc1C(F)(F)F)O/N=C1\N[C@H](CO)[C@@H](O)[C@H](O)[C@H]1O`: the IC50 in series [1] was 5.82 µM; in series [2], > 100 µM; in [3], > 100 µM; in series [4] it was 18.1 µM; in [5], 23.5 µM. In [6], the Ki was 12.3 µM. The fold change (FC) in series [7] stood at 1.32. In [8], the Activity result was “Non-toxic”.

Take `CCCCCCCCCN1C[C@H](O)[C@@H](O)[C@H](O)[C@H]1CO`: the IC50 in series [1], in series [2] and in [3] was > 100 µM throughout. Also, the Activity result in [8] is recorded as “Non-toxic”.

As to `OC[C@H]1N/C(=N/O)[C@H](O)[C@@H](O)[C@@H]1O`, the IC50 is 80.3 µM in [1]; > 100 µM in series [2]; > 100 µM in [3]; 5.84 µM in series [4]; 65.8 µM in series [5]. Besides, the result in [9] was inactive. Also, in [6], the Ki worked out at 4.28 µM. For the same compound, the fold change (FC) in [7] stood at 1.28. Moreover, the Activity result in [8] is recorded as “Non-toxic”.

On to `CC(C)(C)NC(=O)O/N=C1\N[C@H](CO)[C@@H](O)[C@H](O)[C@H]1O`, for which the IC50 in series [1] is 46 µM; in series [2] it was > 100 µM; in series [3] it was > 100 µM; in series [4], 29.1 µM; in [5], 21.5 µM. Moreover, in [6], the Ki was 30.1 µM. In series [7], the fold change (FC) turned out to be 1.3. Moreover, the Activity result in [8] is “Non-toxic”.

As for `O=C(Nc1cccc2ccccc12)O/N=C1\N[C@H](CO)[C@@H](O)[C@H](O)[C@H]1O`, the IC50 was 10.7 µM in series [1]; > 100 µM in series [2]; > 100 µM in series [3]; 7.21 µM in series [4]; 1.43 µM in series [5]. Besides, in [6], the Ki was determined as 7.94 µM. The fold change (FC) in [7] was 1.47. In addition, the Activity result in series [8] is given as “Non-toxic”.

`OC[C@H]1CNC[C@@H](O)[C@@H]1O` [AFEGOSTAT]: the IC50 in [1], in series [2] and in series [3] was > 100 µM in each case. Moreover, the fold change (FC) in series [7] was 1.38. For the same compound, the Activity result in series [8] is recorded as “Non-toxic”.

For `O=C(Nc1ccc2nsnc2c1)O/N=C1\N[C@H](CO)[C@@H](O)[C@H](O)[C@H]1O`, the IC50 in series [1] was 6.21 µM; in series [2] it was > 100 µM; in series [3], > 100 µM; in series [4], 5.75 µM; in series [5], 12.5 µM. The Ki in [6] was found to be 6.38 µM. The fold change (FC) in series [7] worked out at 1.23. Also, in series [8], the Activity entry is on record as “Non-toxic”.

Take `CSc1ccc(NC(=O)O/N=C2\N[C@H](CO)[C@@H](O)[C@H](O)[C@H]2O)cc1`: the 50% inhibitory concentration (IC50) in series [1] was 8.38 µM; in [2] it was > 100 µM; in series [3] it was > 100 µM; in [4], 9.15 µM; in series [5], 17.2 µM. The Ki in series [6] was 8.12 µM. The fold change (FC) in [7] stood at 1.19. For the same compound, the Activity result in [8] is given as “Non-toxic”.

On to `O=C(Nc1ccccc1)O/N=C1\N[C@H](CO)[C@@H](O)[C@H](O)[C@H]1O`, for which the IC50 is 31.1 µM in series [1]; > 100 µM in [2]; > 100 µM in [3]; 12.5 µM in [4]; 19.3 µM in series [5]. For the same compound, the Ki in series [6] is 11.5 µM. Further, the fold change (FC) in [7] amounted to 1.49. Further, the Activity result in series [8] is on record as “Non-toxic”.

On to `O=C(NC12CC3CC(CC(C3)C1)C2)O/N=C1\N[C@H](CO)[C@@H](O)[C@H](O)[C@H]1O`, for which the IC50 in series [1] is 14.4 µM; in series [2] it was > 100 µM; in series [3], > 100 µM; in series [4] it was 1.85 µM; in series [5], 8.37 µM. The Ki in series [6] was found to be 1.52 µM. For the same compound, the fold change (FC) in [7] was 1.35. Moreover, in [8], the Activity result was “Non-toxic”.

For the compound `O=C(Nc1cccs1)O/N=C1\N[C@H](CO)[C@@H](O)[C@H](O)[C@H]1O`, the IC50 in [1] is 2.68 µM; in series [2], > 100 µM; in [3], > 100 µM; in series [4], 0.84 µM; in series [5], 13.2 µM. Moreover, the Ki in series [6] was determined as 0.64 µM. Besides, the fold change (FC) in series [7] is 1.36. Also, the Activity result in series [8] was “Non-toxic”.

Regarding `O=C(Nc1c(F)cccc1F)O/N=C1\N[C@H](CO)[C@@H](O)[C@H](O)[C@H]1O`, the IC50 in [1] is 7.59 µM; in [2], > 100 µM; in series [3], > 100 µM; in [4], 16.8 µM; in series [5], 21.9 µM. For the same compound, the Ki in [6] amounted to 17.4 µM. In addition, the fold change (FC) in [7] came to 1.35. For the same compound, the Activity entry in [8] is recorded as “Non-toxic”.

As to `CCCCCCCCCCCCNC(=O)O/N=C1\N[C@H](CO)[C@@H](O)[C@H](O)[C@H]1O`, the IC50 is > 100 µM in series [1]; > 100 µM in [2]; > 100 µM in series [3]; 0.7 µM in series [4]; 5.74 µM in series [5]. In addition, in series [6], the Ki was 0.14 µM. In addition, the fold change (FC) in [7] came to 1.93. Moreover, the Activity result in series [8] is “Non-toxic”.

As to `O=C(Nc1ccc(Oc2ccccc2)cc1)O/N=C1\N[C@H](CO)[C@@H](O)[C@H](O)[C@H]1O`, the IC50 in [1] is 14.4 µM; in [2] it was > 100 µM; in series [3] it was > 100 µM; in series [4] it was 0.32 µM; in [5], 3.32 µM. Besides, the Ki in series [6] was 0.05 µM. Moreover, the fold change (FC) in series [7] came out at 1.17. Also, the Activity entry in [8] is “Non-toxic”.
